Data on two compounds can be found in US11007169B2, “Cis-gnetin H and trans-gnetin H as therapeutic agents” (MIDDLE TENNESSEE STATE UNIVERSITY, priority 2014, dated 2021).

A short description of data set [1]: Stability testing, 6 months in the dark at room temperature, HPLC. The data set is classed as physicochemical. To be noted: 6-month storage in the dark at room temperature, 1 mg/ml in methanol. The protocol:
For stability testing, cis- and trans-gnetin H were dissolved with methanol to a concentration of 1 mg/ml. The stock solutions were sealed in a glass bottle and kept in the dark at room temperature for 6 months and then the purity of the two compounds was tested using the HPLC method previously described (He et al., J. Liq. Chromatog. Rel. Technol. 2013; 36:1708-1724). For conversion testing, cis- and trans-gnetin H were individually illuminated with a 12-watt fluorescent lamp for 2, 4 and 6 hours, and the compounds were identified using HPLC.

In data set [2] the test system is A549 cells. Kind of data set: Apoptosis assay by flow cytometry, A549. The data set is classed as cell-based, human. To be noted: 100 μM, 24 hours. The protocol: A549 and BT20 cells were seeded in a 96-well plate (BD Falcon) at a density of 8000 cells/well, and treated with cis- or trans-gnetin H for 24 hours. Apoptosis was assessed using Annexin V/7-AAD double staining as described (Bai et al., Cancer Sci. 2010; 101(2):488-493). Cells were analyzed on a Guava Flow Cytometer (Millipore) using InCyte software and the data was exported to FlowJo software for image display.
On the technique in general: In flow cytometry, cells or beads pass a laser one at a time.

Data set [3] relates to A549 lung cancer xenografts. Kind of data set: Xenograft studies, A549 lung tumors in nude mice. The data set is classed as in vivo. To be noted: 2.4 mg/kg. The protocol:
14 male nude mice (6 weeks old) were injected subcutaneously on both flanks with 2×10^6 A549 cells. […] Tumor sizes were measured 3 times per week, and volumes were calculated using the formula [length (mm)]×[width (mm)]^2/2 (Warburton et al., Clin. Cancer Res. 2004; 10(7): 2512-2524).

Data set [4] concerns TNF-α in LPS-stimulated THP-1 cells. Kind of data set: Cytokine response by ELISA, TNF-α. To be noted: for pIC50: Homo sapiens, THP-1, pretreated 1 h, LPS 4 h, ELISA; for inhibition of TNF-α: cis 12.5-50 μM, trans 8-30 μM, 20 ng/ml LPS, p<0.05. In kind it is cell-based, human. The protocol:
THP-1 cells were maintained in RPMI 1640 medium supplemented with 10% complement-inactivated FBS and 1% penicillin/streptomycin (complete culture medium) at 37° C. with 5% CO2 supplemented. Cell concentrations were adjusted to desired concentrations for each experiment by centrifugation at 500×g for 5 min and resuspended in complete culture medium with 100 nM of PMA. Cell concentration was adjusted to 5×10^5 cells/ml for all assays and 2.5×10^5 cells/ml were used for NF-κB nuclear translocation assay. Cells were seeded onto 96-, 24-, or 12-well plates and incubated for 48 to 72 h to allow for differentiation. Cells were washed with serum-free RPMI 1640 medium before each experiment to remove the undifferentiated cells.
Differentiated THP-1 cells were pretreated with various concentrations of cis-gnetin H, trans-gnetin H, or 1 μM of dexamethasone for 1 h and stimulated with 20 ng/ml of LPS for 4 h. Dexamethasone is a synthetic glucocorticoid that suppresses cytokine response and was used as a positive control (Abraham et al., 2006, J. Exp. Med., 203:1883-9; Steer et al., J. Biol. Chem., 2000, 275(24):18432-40). Supernatants were collected for human cytokine ELISAs and the manufacturer's protocol was followed to assess the cytokine response. Cells remaining after the supernatant collection were tested for relative viability by Alamar Blue cytotoxicity assay as described earlier.

Data set [5] deals with malignant cells (A549, BT20, MCF-7, U2OS). Put plainly: IC50 determination, panel of malignant cell lines. In kind it is cell-based, human. The protocol: The cancer cell lines used in this study included human lung carcinoma (A549), human breast carcinoma (BT20 and MCF-7) and human osteosarcoma (U2OS), with the normal cell lines human peripheral lung epithelial cells (HPL1A) and human mammary epithelial cells (HMEC) serving as controls. A549, BT20, MCF-7, U2OS and HMEC cells were purchased from American Type Culture Collection (ATCC, USA), and HPL1A cells were obtained from Nagoya University, Japan. A549 and BT20 were grown in RPMI-1640 (Sigma), MCF-7 was grown in Dulbecco's Modified Eagle Medium (DMEM) (Sigma) supplemented with 0.01 mg/ml human recombinant insulin (Sigma), U2OS and HMEC were grown in McCoy's 5A (ATCC), and HPL1A was grown in DMEM/F-12K (Sigma). The mediums were supplemented with 10% Fetal Bovine Serum (FBS) (Gibco), 1% penicillin and streptomycin and incubated in a humidified atmosphere with 5% CO2 at 37° C.
The proliferation inhibition potential of cis- and trans-gnetin H was determined by a fluorescence dye staining method. Cells were seeded in a 96-well tissue culture-treated plate (BD Falcon) at a density of 4000 cells/well, and treated with cis- or trans-gnetin H for 48 hours. AlamarBlue dye (Invitrogen) was used to assess the viability of cells according to the manufacturer's instructions; the fluorescent intensity was read on a SpectraMax M2e microplate reader (Molecular Devices Inc.). […]

Data set [6] has as its system HL-60 (human leukemia) cells. To be noted: Kang et al. 2003, cited from earlier work.
The subject of data set [7] is L1210 (mouse leukemia) cells. To be noted: Ha et al. 2009; cited from earlier work.

pIC50: −log10 of the molar value.

The pIC50 is the negative decadic logarithm of the IC50, by convention in mol/L. On to `Oc1ccc(/C=C\c2c3c(cc4c2[C@H](c2cc(O)cc(O)c2)[C@@H](c2ccc(O)cc2)O4)O[C@H](c2ccc(O)cc2)[C@H]3c2cc(O)cc(O)c2)cc1` [cis-gnetin H], for which the “chemical identity after storage” value in data set [1] is “no obvious changes”. Moreover, the “apoptosis induction in A549” value in data set [2] was “induce apoptosis”. Besides, the “less increase in size of large tumors compared to the untreated control” value in data set [3] (large tumors) amounted to 68%. Further, the “food intake or body weight of treated animals” value in data set [3] (nude mice) is on record as “no apparent alteration on food intake or body weight”. In data set [3] (small tumors), the “less increase in size of small tumors compared to the untreated control” value came out at 39%. In data set [4], the pIC50 was 4.72 and the “inhibition of TNF-α” value is reported as “significant inhibition”.

`Oc1ccc(/C=C/c2c3c(cc4c2[C@H](c2cc(O)cc(O)c2)[C@@H](c2ccc(O)cc2)O4)O[C@H](c2ccc(O)cc2)[C@H]3c2cc(O)cc(O)c2)cc1` [trans-gnetin H]: the “more antiproliferation activity than previously reported” value in data set [5] (A549, BT20, MCF-7 and U2OS versus literature) is listed as 2-9 fold. For the same compound, the pIC50 in data set [5] (Homo sapiens, 48 h, bone, breast and lung cancer cell lines, 48 hours, read-out: IC50 values in malignant cells (range over cell lines)) is 5.00 to 5.87; in data set [4] it was 5.22; in data set [6] (read-out: IC50, viability of HL-60 cells) it was 4.60; in data set [7] it was 4.40. The “chemical identity after storage” value in data set [1] is given as “no obvious changes”. For the same compound, the “apoptosis induction in A549” value in data set [2] was “induce apoptosis”. Moreover, the “inhibition of TNF-α” value in data set [4] is “significant inhibition”. For the same compound, the “increase of the sub-G1 population” value in data set [6] (HL-60 cells, 25 μM) is reported as 11%.
